Where a name gives a salt, the structure may show the parent alone.

Data set [1] in a line: Cytotoxicity against human H7402 cells assessed as cell growth inhibition incubated for 24 hrs by MTT assay. In kind it is functional, cell-based. Particulars: H7402, 24 h. For orientation: Formazan colour is commonly taken as a measure of viable cells.
The test system of data set [2] is Macrophage. Kind of data set: Cytotoxicity against mouse spleen macrophage assessed as cell growth inhibition. Type of data set: functional, cell-based.
Data set [3] relates to T-cell. Description: Cytotoxicity against mouse spleen T-cells assessed as cell growth inhibition. In kind it is functional, cell-based.
The subject of data set [4] is MCF7. Kind of data set: Cytotoxicity against human MCF7 cells assessed as cell growth inhibition incubated for 72 hrs by SRB assay. In kind it is functional, cell-based. Conditions: MCF7, 72 h. On the technique in general: The SRB assay estimates cell density from bound dye.
In data set [5] the test system is HepG2. Description: Cytotoxicity against human HepG2 cells assessed as cell growth inhibition incubated for 72 hrs by SRB assay. Particulars: HepG2, 72 h. Type of data set: functional, cell-based.
Data set [6] relates to A549. Kind of data set: Cytotoxicity against human A549 cells assessed as cell growth inhibition incubated for 72 hrs by SRB assay. Particulars: A549, 72 h. Type of data set: functional, cell-based.
The subject of data set [7] is SF-268. Kind of data set: Cytotoxicity against human SF-268 cells assessed as cell growth inhibition incubated for 72 hrs by SRB assay. Type of data set: functional, cell-based. Particulars: SF-268, 72 h.
For data set [8], the system named is NCI-H1395. Kind of data set: Cytotoxicity against human NCI-H1395 cells assessed as cell growth inhibition incubated for 96 hrs by Cell Titer Glo assay. In kind it is functional, cell-based. Conditions: NCI-H1395, 96 h. On the technique in general: In ATP-based viability assays light output follows the ATP content of the culture.
Data set [9] has as its system NSCLC. Kind of data set: Cytotoxicity against human NSCLC cells assessed as cell growth inhibition incubated for 96 hrs by Cell Titer Glo assay. In kind it is functional, cell-based.
The subject of data set [10] is HCC1395. Kind of data set: Cytotoxicity against human HCC1395 cells assessed as cell growth inhibition incubated for 96 hrs by Cell Titer Glo assay. In kind it is functional, cell-based. Conditions: HCC1395, 96 h.
For data set [11], the system named is MCF7. Description: Antitumor activity against Adriamycin-resistant human MCF7 cells xenografted in athymic nude BALB/c mouse assessed as tumor growth inhibition at 5 mg/kg, iv measured every 4 days for 40 days by caliper method relative to control. In kind it is functional. Conditions: MCF7, 960 h, time 40 day, read-out: TGI.
The nature of data set [12]: Cytotoxicity against African green monkey cells assessed as cell growth inhibition by Alamar blue staining based fluorescence assay. In kind it is toxicity. Particulars: African green monkey (Chlorocebus sabaeus), Vero cells.
Data set [13] in a line: Cytotoxicity against human HTB26 cells assessed as cell growth inhibition by Alamar blue staining based fluorescence assay. In kind it is functional.
The subject of data set [14] is MCF7. Kind of data set: Cytotoxicity against human MCF7 cells assessed as cell growth inhibition by Alamar blue staining based fluorescence assay. Type of data set: functional.
In data set [15] the test system is HCT-116. Kind of data set: Cytotoxicity against human HCT-116 cells assessed as cell growth inhibition by Alamar blue staining based fluorescence assay. In kind it is functional.
Data set [16] has as its system Panel NCI-60 (60 carcinoma cell lines). Kind of data set: Cytotoxicity against human Panel NCI-60 (60 carcinoma cell lines) cells assessed as cell growth inhibition. Type of data set: functional, cell-based.
Data set [17] relates to HCT-116. Description: Cytotoxicity against human HCT-116 cells assessed as cell growth inhibition incubated for 72 hrs by CellTiter 96 Aqueous One Solution Cell Proliferation assay. Type of data set: functional, cell-based. Particulars: HCT-116, 72 h.
In data set [18] the test system is Candida albicans. Kind of data set: Antifungal activity against Candida albicans assessed as fungal growth inhibition by microbroth dilution method. In kind it is functional.
For data set [19], the system named is HCT-116. Kind of data set: Cytotoxicity against human HCT-116 cells assessed as cell growth inhibition by MTT assay. In kind it is functional, cell-based.
Data set [20] deals with Androgen receptor (Homo sapiens, UniProt P10275). Kind of data set: Displacement of [3H]-DHT from recombinant androgen receptor (unknown origin) incubated for 3 hrs by liquid scintillation counter method.
Data set [21] addresses Tyrosine-protein phosphatase non-receptor type 6 (Homo sapiens, UniProt P29350). Description: Inhibition of recombinant human SHP1 expressed in Escherichia coli using pnitrophenyl phosphate as substrate preincubated for 15 mins followed by substrate addition measured after 60 mins by absorbance based assay.
The target in data set [22] is T1, M-phase inducer phosphatase 2 (Homo sapiens, UniProt P30305).
T1 sequence (P30305 whole entry): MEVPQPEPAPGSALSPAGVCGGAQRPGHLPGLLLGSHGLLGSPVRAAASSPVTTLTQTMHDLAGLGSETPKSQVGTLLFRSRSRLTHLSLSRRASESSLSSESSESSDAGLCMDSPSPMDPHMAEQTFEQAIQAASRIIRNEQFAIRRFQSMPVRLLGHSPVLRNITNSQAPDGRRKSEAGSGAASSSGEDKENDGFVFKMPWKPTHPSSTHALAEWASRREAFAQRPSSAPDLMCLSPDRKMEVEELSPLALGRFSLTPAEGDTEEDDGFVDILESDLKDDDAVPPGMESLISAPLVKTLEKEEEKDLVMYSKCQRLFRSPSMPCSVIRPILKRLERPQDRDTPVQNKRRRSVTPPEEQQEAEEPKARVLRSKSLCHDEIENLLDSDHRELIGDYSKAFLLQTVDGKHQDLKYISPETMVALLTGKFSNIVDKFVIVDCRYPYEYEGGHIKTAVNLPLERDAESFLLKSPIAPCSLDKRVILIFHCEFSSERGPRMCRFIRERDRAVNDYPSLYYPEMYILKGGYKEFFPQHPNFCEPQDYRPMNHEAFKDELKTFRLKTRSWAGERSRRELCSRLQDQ
Description: Inhibition of recombinant human CDC25B expressed in Escherichia coli using pnitrophenyl phosphate as substrate preincubated for 15 mins followed by substrate addition measured after 60 mins by absorbance based assay.

Data set [23] has as its system SW-620. Description: Antitumor activity against human SW620 cells xenografted in BALB/c nude mouse assessed as tumor growth inhibition at 10 mg/kg/day, ip for 28 days relative to control. In kind it is functional. Conditions: SW-620, 672 h, time 28 day, read-out: TGI.

Chain of Androgen receptor (P10275 whole entry): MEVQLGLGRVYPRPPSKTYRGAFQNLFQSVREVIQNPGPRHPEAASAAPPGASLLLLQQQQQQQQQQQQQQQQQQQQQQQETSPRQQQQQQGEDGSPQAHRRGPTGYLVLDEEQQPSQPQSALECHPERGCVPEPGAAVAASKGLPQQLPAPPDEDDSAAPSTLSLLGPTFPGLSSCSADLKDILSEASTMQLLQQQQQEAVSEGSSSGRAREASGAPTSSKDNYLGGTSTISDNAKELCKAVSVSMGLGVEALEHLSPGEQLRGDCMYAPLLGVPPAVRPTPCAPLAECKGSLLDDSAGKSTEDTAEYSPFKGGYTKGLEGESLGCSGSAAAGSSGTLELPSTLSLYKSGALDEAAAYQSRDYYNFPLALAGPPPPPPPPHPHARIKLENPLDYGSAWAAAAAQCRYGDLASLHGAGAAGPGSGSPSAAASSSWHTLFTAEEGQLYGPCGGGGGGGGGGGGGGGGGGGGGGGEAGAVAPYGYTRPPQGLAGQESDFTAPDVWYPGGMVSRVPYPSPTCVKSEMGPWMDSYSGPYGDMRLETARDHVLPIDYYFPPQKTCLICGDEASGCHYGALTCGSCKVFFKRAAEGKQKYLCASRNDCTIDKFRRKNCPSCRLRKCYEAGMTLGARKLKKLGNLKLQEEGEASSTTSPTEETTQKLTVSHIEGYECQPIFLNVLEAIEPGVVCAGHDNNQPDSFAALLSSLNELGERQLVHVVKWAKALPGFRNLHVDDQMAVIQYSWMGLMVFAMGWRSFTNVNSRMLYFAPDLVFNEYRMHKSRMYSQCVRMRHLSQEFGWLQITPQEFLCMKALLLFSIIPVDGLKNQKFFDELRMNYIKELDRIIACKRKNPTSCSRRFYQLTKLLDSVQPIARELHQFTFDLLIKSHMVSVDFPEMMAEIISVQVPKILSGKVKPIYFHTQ
Chain of Tyrosine-protein phosphatase non-receptor type 6 (P29350 whole entry): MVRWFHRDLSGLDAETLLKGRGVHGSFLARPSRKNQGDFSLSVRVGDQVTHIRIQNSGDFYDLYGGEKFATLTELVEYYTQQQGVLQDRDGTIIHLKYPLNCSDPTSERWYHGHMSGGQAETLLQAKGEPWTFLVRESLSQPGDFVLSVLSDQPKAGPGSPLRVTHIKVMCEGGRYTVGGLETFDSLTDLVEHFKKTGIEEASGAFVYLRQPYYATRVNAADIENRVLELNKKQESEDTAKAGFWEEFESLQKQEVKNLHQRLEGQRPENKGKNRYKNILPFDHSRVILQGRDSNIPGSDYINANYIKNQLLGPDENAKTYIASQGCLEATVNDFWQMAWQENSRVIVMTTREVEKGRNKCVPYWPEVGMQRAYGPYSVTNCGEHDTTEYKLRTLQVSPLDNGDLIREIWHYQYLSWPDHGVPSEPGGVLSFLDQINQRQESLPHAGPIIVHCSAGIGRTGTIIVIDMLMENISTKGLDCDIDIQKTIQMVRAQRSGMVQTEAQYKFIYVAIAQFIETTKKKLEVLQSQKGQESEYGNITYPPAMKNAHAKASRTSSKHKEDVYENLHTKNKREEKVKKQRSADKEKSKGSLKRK

On to `COC(=O)N[C@H]1[C@@H](C)O[C@@H](O[C@H]2C/C=C(\C)[C@]3(C)CC[C@@H]4[C@@H](O[C@H]5C[C@@H](O[C@H]6C[C@@H](O)[C@@H](O[C@@H]7C[C@@H](O)[C@@H](OC)[C@H](C)O7)[C@H](C)O6)C[C@H](C)O5)[C@@H](C)C[C@H](C)[C@H]4[C@]3(C)C(=O)C3C(=O)OC4(C[C@@H](C)C(CO)=C[C@H]4/C=C/2C)C3=O)C[C@]1(C)[N+](=O)[O-]` (stereo partly drawn), for which, in data set [1], the IC50 (in general, the concentration that inhibits the measured activity by half) came out at 0.6 µM.
On to `CC(=O)c1nncc2c1C(=O)C1=C(OC(C)(C)[C@H](Cl)C1=O)[C@]2(O)C[C@H]1C(C)(C)[C@@H](Cl)CC[C@]1(C)O`, for which the IC50 in data set [2] and in data set [3] was 40 µM throughout.
With `C=C(C)[C@H]1CC=C(C)[C@H]2C[C@H]3Cc4c(C)cc(O)cc4O[C@@]3(C)C[C@H]12`, the IC50 in data set [4], in data set [5], in data set [6] and in data set [7] was 20 µM throughout.
Regarding `COc1cc2nc(C(=O)NCC(=O)O)sc2c(C/C=C(\C)CC/C=C(\C)CC/C=C(\C)CCC/C(C)=C\CC(=O)O)c1O`, the results for the IC50 in data set [8], in data set [9] and in data set [10] were 2.5 µM, 1.5 µM and 6.8 µM, respectively.
On to `COc1cccc2c1C(=O)c1c(O)c3c(c(O)c1C2=O)C[C@@](O)(C(=O)CO)C[C@@H]3O[C@H]1C[C@H](N)[C@H](O)[C@H](C)O1` [DOXORUBICIN HYDROCHLORIDE], for which the inhibition in vivo at 5 mg/kg in data set [11] was 46%.
With `C=C(C)C1C[C@H](O)C2(C)CCCC3C2C1CC(C)C3(C)CC/C(C)=C/[C@@H](O)[C@@H]1CCC(=O)c2c(OC)cc(OC)cc21` (stereo partly drawn), the IC50 in [12] was 23.7 µM; in [13] it was 10.1 µM; in [14], 7.8 µM; in data set [15], 11.9 µM.
Turning to `CC1=CCC[C@@H](C)[C@]1(C)CC[C@@]1(C)c2c(O)cc3c(c2O[C@@H]1C)C(=O)C(C)=C(O)C3=O`, in [16], the half-inhibitory concentration (IC50) came to 10 µM.
As to `C=C1CC[C@H](Cl)C(C)(C)[C@@H]1C[C@@]12OC(C)(C)[C@H](Cl)C[C@]1(Cl)C(=O)C1=C(C2=O)C(=[N+]=[N-])C(=O)C(C)=C1O`, the half-inhibitory concentration (IC50) in data set [17] amounted to 0.5 µM.
As to `CC1=C(Cn2c3ccc(Br)c(=O)c-3nc3ccccc32)CCC(C)(C)C1`, in data set [18], the MIC – broadly, the least concentration at which growth counts as inhibited – came to 0.95 µM. Moreover, in data set [19], the IC50 is 0.049 µM.
`CC1=CC[C@H](C(C)(C)O)[C@H]2C[C@]3(C)Oc4cc(O)cc(C)c4C[C@@H]3C[C@H]12`: the concentration for half-maximal inhibition (IC50) in [4], in data set [5], in data set [6] and in data set [7] was 20 µM in each case.
On to `C=C[C@@]1(C)CC[C@H]2C(C=C[C@H]3[C@H](CO)CC(=O)C[C@]23C)C1` (stereo partly drawn), for which the concentration for half-maximal inhibition (IC50) in data set [20] is 9.71 µM.
On to `COC(=O)[C@]12[C@](C)(C(=O)[C@@]1(C)O)C(C)=C[C@H]1[C@]34CC[C@H](OC(C)=O)C(C)(C)[C@H]3[C@H](C[C@@]12C)OC4=O`, for which the results for the IC50 in [21] and in data set [22] were 23 µM and 18 µM, respectively.
`C=C1C(=O)C=C2C=C3[C@@H](O)C(C)(C)C[C@@]3(O)[C@]12C`: in [23], the inhibition in vivo at 10 mg/kg/day came to 50%.
Take `CC(C)=CCn1c2ccc(Br)c(=O)c-2nc2ccccc21`: in data set [19], the concentration for half-maximal inhibition (IC50) amounted to 0.029 µM.

For the origin of these results see ChEMBL document CHEMBL5104094, “Chemistry, biosynthesis and biological activity of terpenoids and meroterpenoids in bacteria and fungi isolated from different marine habitats” (Eur J Med Chem, 2021).
